The target of one test is T1, Hck (Homo sapiens, UniProt P08631).
T1 construct: purchased Life Technologies
The experiment in a line: Hck enzyme inhibition (Z-LYTE FRET). In kind it is biochemical. Particulars: Table 2A. The procedure: The enzyme inhibitory activities of compounds disclosed herein were determined by FRET using synthetic peptides labelled with both donor and acceptor fluorophores (Z-LYTE, Life Technologies, Paisley, UK).
The relevant enzyme (1000 ng/mL, 1400 ng/mL or 2000 ng/mL respectively, 2.5 μL) was incubated with the test compound (either 40 μg/mL, 12 μg/mL, 4 μg/mL, 1.2 μg/mL, 0.4 μg/mL, 0.12 μg/mL, 0.04 μg/mL, 0.012 μg/mL, 0.004 μg/mL or 0.0012 μg/mL, 2.5 μL each) for 2 h at RT. The FRET peptides (8 μM, 2.5 μL), and appropriate ATP solutions (2.5 μL, 800 μM for c-Src, and 60 μM ATP for HCK and Syk) were then added to the enzyme/compound mixtures and incubated for 1 h at RT. Development reagent (protease, 5 μL) was added for 1 h prior to detection in a fluorescence microplate reader (EnVision, Perkin Elmer).
In all cases, the site-specific protease cleaves non-phosphorylated peptide only and eliminates the FRET signal. Phosphorylation levels of each reaction were calculated using the ratio of coumarin emission (donor) over fluorescein emission (acceptor), for which low ratios indicate high phosphorylation and high ratios indicate low phosphorylation levels.

Test [1] deals with ICAM-1 expression in BEAS2B cells. In words: Poly I:C-induced ICAM-1 expression in BEAS2B cells. Particulars: Homo sapiens, BEAS-2B, read-out: PolyIC/ICAM1 IC50 (BEAS2B). In kind it is cell-based. As to the method: Poly I:C was used in these studies as a simple, RNA virus mimic. Poly I:C-Oligofectamine mixture (2% Oligofectamine±1 μg/mL Poly I:C, 25 μL; Life Technologies and Invivogen Ltd., San Diego, Calif., respectively) was transfected into BEAS2B cells (human bronchial epithelial cells, ATCC). Cells were pre-incubated with final concentrations of test compounds for 2 h and the level of ICAM-1 expression on the cell surface was determined by cell-based ELISA. At a time point 18 h after poly I:C transfection, cells were fixed with 4% formaldehyde in PBS (100 μL) and then endogenous peroxidase was quenched by the addition of washing buffer (100 μL, 0.05% Tween in PBS: PBS-Tween) containing 0.1% sodium azide and 1% hydrogen peroxide. Cells were washed with wash-buffer (3×200 μL). After blocking the wells with 5% milk in PBS-Tween (100 μL) for 1 h, the cells were incubated with anti-human ICAM-1 antibody (50 μL; Cell Signaling Technology, Danvers, Mass.) in 1% BSA PBS overnight at 4° C.
The cells were washed with PBS-Tween (3×200 μL) and incubated with the secondary antibody (100 μL; HRP-conjugated anti-rabbit IgG, Dako Ltd., Glostrup, Denmark). The cells were then incubated with of substrate (50 μL) for 2-20 min, followed by the addition of stop solution (50 μL, 1N H2SO4). The ICAM-1 signal was detected by reading the absorbance at 450 nm against a reference wavelength of 655 nm using a spectrophotometer. The cells ware then washed with PBS-Tween (3×200 μL) and total cell numbers in each well were determined by reading absorbance at 595 nm after Crystal Violet staining (50 μL of a 2% solution in PBS) and elution by 1% SDS solution (100 μL) in PBS. The measured OD 450-655 readings were corrected for cell number by dividing with the OD595 reading in each well. The inhibition of ICAM-1 expression was calculated at each concentration of test compound by comparison with vehicle control.

Another test addresses T2, p38MAPKγ (MAPK12) (Homo sapiens, UniProt P53778).
T2 construct: purchased Life Technologies
T2 sequence (P53778 1-367): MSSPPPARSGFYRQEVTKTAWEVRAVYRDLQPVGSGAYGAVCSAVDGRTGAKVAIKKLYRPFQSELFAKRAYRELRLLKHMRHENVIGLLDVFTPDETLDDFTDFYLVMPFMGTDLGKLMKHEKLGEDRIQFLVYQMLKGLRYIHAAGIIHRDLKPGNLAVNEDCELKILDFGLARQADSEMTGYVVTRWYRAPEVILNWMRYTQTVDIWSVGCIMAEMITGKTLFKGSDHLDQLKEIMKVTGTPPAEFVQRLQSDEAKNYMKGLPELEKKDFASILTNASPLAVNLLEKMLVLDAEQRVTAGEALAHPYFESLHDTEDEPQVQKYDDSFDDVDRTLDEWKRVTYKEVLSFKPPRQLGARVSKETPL
The experiment in a line: p38 MAPKγ enzyme inhibition (Z-LYTE FRET). The following applies: Table 2A; read-out: IC50 Values for Enzyme Inhibition p38 MAPKγ. The class given is biochemical. A digest of the protocol:
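Z-LYTE read-out: after 1 h protease development, only non-phosphorylated peptide is cleaved, and the donor/acceptor (coumarin/fluorescein) ratio reports phosphorylation. Beforehand, enzyme and compound (stock concentrations 0.0012–40 μg/mL) were preincubated 2 h at RT, then the kinase reaction ran 1 h at RT with peptide and ATP (8 μM and 400 μM stocks).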

T1 sequence (P08631 22-526): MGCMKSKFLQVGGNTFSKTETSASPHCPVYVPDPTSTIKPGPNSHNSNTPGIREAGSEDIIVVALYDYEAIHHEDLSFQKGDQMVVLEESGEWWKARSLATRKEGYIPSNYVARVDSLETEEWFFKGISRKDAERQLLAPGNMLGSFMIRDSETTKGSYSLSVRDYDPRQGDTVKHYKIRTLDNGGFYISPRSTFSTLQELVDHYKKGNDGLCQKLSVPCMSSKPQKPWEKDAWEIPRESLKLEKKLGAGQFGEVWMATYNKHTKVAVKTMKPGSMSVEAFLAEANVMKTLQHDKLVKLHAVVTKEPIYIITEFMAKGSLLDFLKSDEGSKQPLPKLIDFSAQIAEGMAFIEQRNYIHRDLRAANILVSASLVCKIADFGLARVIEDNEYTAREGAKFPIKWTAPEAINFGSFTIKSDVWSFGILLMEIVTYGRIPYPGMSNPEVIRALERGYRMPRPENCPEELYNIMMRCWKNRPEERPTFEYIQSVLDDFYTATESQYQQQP

Consider `Cc1cc(-n2nc(C(C)(C)C)cc2NC(=O)Nc2ccc(OCc3ccnc(Nc4cnccn4)c3)c3ccccc23)cs1` (single isomer, unassigned) [Example 31], for which the results for the IC50 (against Hck; in test [1]; at p38MAPKγ (MAPK12)) were 59 nM, 874 nM and 112 nM, respectively.

`Cc1ccc(-n2nc(C(C)(C)C)cc2NC(=O)Nc2ccc(OCc3ccnc(Nc4cnccn4)c3)c3ccccc23)cc1` [Example 1, 1-(3-(tert-Butyl)-1-(p-tolyl)-1H-pyrazol-5-yl)-3-(4-((2-(pyrazin-2-ylamino)pyridin-4-yl)methoxy)naphthalen-1-yl)urea]: the results for the IC50 (against Hck; in test [1]; on p38MAPKγ (MAPK12)) were 29 nM, 81.8 nM and 67 nM, respectively.

`COCCNC(=O)c1cnc(Nc2cc(COc3ccc(NC(=O)Nc4cc(C(C)(C)C)nn4-c4ccc(C)cc4)c4ccccc34)ccn2)cn1` [Example 3]: the IC50 at Hck is 66 nM; in test [1], 460 nM; at p38MAPKγ (MAPK12), 222 nM.

`Cc1ccc(-n2nc(C(C)(C)C)cc2NC(=O)Nc2ccc(OCc3ccnc(Nc4cnc(C)c(C)n4)c3)c3ccccc23)cc1` [Example 4, 1-(3-(tert-Butyl)-1-(p-tolyl)-1H-pyrazol-5-yl)-3-(4-((2-((5,6-dimethylpyrazin-2-yl)amino)pyridin-4-yl)methoxy)naphthalen-1-yl)urea]: the IC50 at Hck is 111 nM; in test [1], over 1600 nM; at p38MAPKγ (MAPK12) it was 441 nM.

As to `Cc1ccc(-n2nc(C(C)(C)C)cc2NC(=O)Nc2ccc(OCc3ccnc(Nc4cnc(CN)cn4)c3)c3ccccc23)cc1` [Example 5, 1-(4-((2-((5-(Aminomethyl)pyrazin-2-yl)amino)pyridin-4-yl)methoxy)naphthalen-1-yl)-3-(3-(tert-butyl)-1-(p-tolyl)-1H-pyrazol-5-yl)urea], the values for the IC50 (on Hck; in test [1]; at p38MAPKγ (MAPK12)) were under 0.48 nM, 474 nM and 16 nM, respectively.

As for `CC(=O)NCc1cnc(Nc2cc(COc3ccc(NC(=O)Nc4cc(C(C)(C)C)nn4-c4ccc(C)cc4)c4ccccc34)ccn2)cn1` [Example 6, N-((5-((4-(((4-(3-(3-(tert-butyl)-1-(p-tolyl)-1H-pyrazol-5-yl)ureido)naphthalen-1-yl)oxy)methyl)pyridin-2-yl)amino)pyrazin-2-yl)methyl)acetamide], the IC50 against Hck was found to be 10 nM; in test [1], 52.4 nM; on p38MAPKγ (MAPK12), 37 nM.

Consider `CNC(=O)c1cnc(Nc2cc(COc3ccc(NC(=O)Nc4cc(C(C)(C)C)nn4-c4ccc(C)cc4)c4ccccc34)ccn2)cn1` [Example 7, 5-((4-(((4-(3-(3-(tert-Butyl)-1-(p-tolyl)-1H-pyrazol-5-yl)ureido)naphthalen-1-yl)oxy)methyl)pyridin-2-yl)amino)-N-methylpyrazine-2-carboxamide], for which the IC50 against Hck is 64 nM; in test [1] it was over 1520 nM; on p38MAPKγ (MAPK12), 151 nM.

Regarding `Cc1ccc(-n2nc(C(C)(C)C)cc2NC(=O)Nc2ccc(OCc3ccnc(Nc4cncc(CC(=O)N(C)C)n4)c3)c3ccccc23)cc1` [Example 8, 2-(6-((4-(((4-(3-(3-(tert-butyl)-1-(p-tolyl)-1H-pyrazol-5-yl)ureido)naphthalen-1-yl)oxy)methyl)pyridin-2-yl)amino)pyrazin-2-yl)-N,N-dimethylacetamide], the IC50 was 10 nM against Hck, 31.5 nM in test [1] and 43 nM at p38MAPKγ (MAPK12).

As to `Cc1ccc(-n2nc(C(C)(C)C)cc2NC(=O)Nc2ccc(OCc3ccnc(Nc4cnc(C(=O)N(C)C)cn4)c3)c3ccccc23)cc1` [Example 9, 5-((4-(((4-(3-(3-(tert-Butyl)-1-(p-tolyl)-1H-pyrazol-5-yl)ureido)naphthalen-1-yl)oxy)methyl)pyridin-2-yl)amino)-N,N-dimethylpyrazine-2-carboxamide], the IC50 against Hck worked out at 1500 nM; in test [1], 72.5 nM; at p38MAPKγ (MAPK12), 9240 nM.

As for `Cc1ccc(-n2nc(C(C)(C)C)cc2NC(=O)Nc2ccc(OCc3ccnc(Nc4cnc(CO)cn4)c3)c3ccccc23)cc1` [Example 10, 1-(3-(tert-Butyl)-1-(p-tolyl)-1H-pyrazol-5-yl)-3-(4-((2-((5-(hydroxymethyl)pyrazin-2-yl)amino)pyridin-4-yl)methoxy)naphthalen-1-yl)urea], the IC50 on Hck worked out at 16 nM; in test [1], 32.5 nM; on p38MAPKγ (MAPK12) it was 31 nM.

With `Cc1ccc(-n2nc(C(C)(C)C)cc2NC(=O)Nc2ccc(OCc3ccnc(Nc4cncc(C#N)n4)c3)c3ccccc23)cc1` [Example 11], the IC50 against Hck was over 8890 nM; in test [1], over 1600 nM; at p38MAPKγ (MAPK12), 682 nM.

Take `COc1ccc(-n2nc(C(C)(C)C)cc2NC(=O)Nc2ccc(OCc3ccnc(Nc4cnccn4)c3)c3ccccc23)cn1` [Example 12]: the IC50 against Hck amounted to 39 nM; in test [1] it was 242 nM; at p38MAPKγ (MAPK12), 198 nM.

Turning to `Cc1ccc(-n2nc(C(C)(C)C)cc2NC(=O)Nc2ccc(OCc3ccnc(Nc4cnccn4)c3)c3ccccc23)s1` [Example 13], the IC50 against Hck worked out at 49 nM; in test [1] it was 556 nM; on p38MAPKγ (MAPK12), 63 nM.

For the molecule `Cc1ccc(-n2nc(C(C)(C)C)cc2NC(=O)Nc2ccc(OCc3ccnc(Nc4cncc(N(C)C)n4)c3)c3ccccc23)cc1` [Example 14], the results for the IC50 (against Hck; in test [1]; at p38MAPKγ (MAPK12)) were 6 nM, 64.3 nM and 237 nM, respectively.

For `Cc1ccc(-n2nc(C(C)(C)C)cc2NC(=O)Nc2ccc(OCc3ccnc(Nc4cncc(C5CC5)n4)c3)c3ccccc23)cc1` [Example 15], the IC50 is 15 nM against Hck, 15.7 nM in test [1] and 160 nM at p38MAPKγ (MAPK12).

In the case of `Cc1ccc(-n2nc(C(C)(C)C)cc2NC(=O)Nc2ccc(OCc3ccnc(Nc4cnc(C5CC5)cn4)c3)c3ccccc23)cc1` [Example 16], the IC50 is 355 nM at Hck, over 1560 nM in test [1] and over 7150 nM at p38MAPKγ (MAPK12).

On to `Cc1ccc(-n2nc(C(C)(C)C)cc2NC(=O)Nc2ccc(OCc3ccnc(Nc4cnc(C(=O)NCCN5CCOCC5)cn4)c3)c3ccccc23)cc1` [Example 17], for which the figures for the IC50 (against Hck; in test [1]; on p38MAPKγ (MAPK12)) were 17 nM, 433 nM and 74 nM, respectively.

Take `COc1cncc(Nc2cc(COc3ccc(NC(=O)Nc4cc(C(C)(C)C)nn4-c4ccc(C)cc4)c4ccccc34)ccn2)n1` [Example 18]: the results for the IC50 (at Hck; in test [1]; on p38MAPKγ (MAPK12)) were 41 nM, 97.8 nM and 104 nM, respectively.

Consider `Cc1ccc(-n2nc(C(C)(C)C)cc2NC(=O)Nc2ccc(OCc3ccnc(Nc4cnc(C)cn4)c3)c3ccccc23)cc1` [Example 19], for which the IC50 against Hck came to 53 nM; in test [1], 340 nM; on p38MAPKγ (MAPK12) it was 229 nM.

For `Cc1ccc(-n2nc(C(C)(C)C)cc2NC(=O)Nc2ccc(OCc3ccnc(Nc4cncc(C)n4)c3)c3ccccc23)cc1` [Example 20], the IC50 at Hck was 52 nM; in test [1], 152 nM; at p38MAPKγ (MAPK12) it was 62 nM.

For the molecule `Cc1ccc(-n2nc(C(C)(C)C)cc2NC(=O)Nc2ccc(OCc3ccnc(Nc4cncc(CO)n4)c3)c3ccccc23)cc1` [Example 21], the IC50 was 12 nM on Hck, 76.5 nM in test [1] and 31 nM at p38MAPKγ (MAPK12).

(Values after patent publication US11142515B2, “Pyrazolyl-ureas as kinase inhibitors” (RESPIVERT LIMITED, priority 2014, dated 2021).)
